Where two headings read alike, the source gives them in different places.
Tests used:
[1] = tested on: HL-60 human promyelocytic cell line; assay: Apoptosis induction in non-adherent cancer cells; assay type: cell-based
[2] = tested on: ovarian tumor cells; assay: DNA fragmentation, agarose-gel electrophoresis; assay type: cell-based, human; conditions: 50 μM
[3] = tested on: H-596 lung tumor cells; assay: Cell growth inhibition, 3 d exposure, cell counting; assay type: cell-based, human
Protocol: (§1) One ml of this cell suspension was added to each well of a 12 well cell culture plate that contained 3 ml of appropriate media plus serum. […] Control wells received 40 μl of 5% Kollidon 17 PF alone. Seventy-two hours later, all cells were harvested by trypsinization and cell number determined electronically using a Coulter Model Z1 particle counter (Coulter Corp., Miami, Fla.) to assess cell growth inhibition. Each experiment was performed in duplicate and repeated a minimum of three times.
(§2) Cells were seeded at a density of 1-5×10^4 cells in each well of a 6 well tissue culture flask. […] After three days, cells were harvested by trypsinization and cell number determined electronically. Cell growth inhibition was determined by comparison to non-Taurolidine exposed control cultures. The IC50 was calculated as the concentration required to inhibit cell number by 50%.

[4] = tested on: HCT-8 colon tumor cells; assay: as above; assay type: cell-based, human
Protocol: as §1, §2

[5] = tested on: HCT-15 colon tumor cells; assay: as above; assay type: cell-based, human
Protocol: as §1, §2

[6] = tested on: DU-145 prostate tumor cells; assay: as above; assay type: cell-based, human
Protocol: as §1, §2

[7] = tested on: SKOV3 human ovarian tumor cell line; assay: Mouse model of recurrent ovarian cancer, intraperitoneal lavage; assay type: in vivo, Holland Sprague-Dawley mice; conditions: i.p. lavage from 5 days after 5×10^6 tumor cells, 3 times a day for 4 days, 30 mg/day
Protocol: Holland Sprague-Dawley mice were injected with 5×10^6 tumor cells (e.g., SKOV3 human ovarian tumor cell line) to mimic a condition of advanced ovarian cancer. […] At least a 75-80% reduction in tumor foci was observed.

[8] = tested on: TNF; interleukins 1, 6, and 10; VEGF; TGF; assay: Factors controlling angiogenesis in treated patients; assay type: in vivo, human; conditions: metastatic colon cancer patients, compared to placebo
Protocol: Patients with metastatic colon cancer were treated with taurolidine and several factors controlling angiogenesis were measured.

[9] = tested on: SKOV-3 cells; assay: PARP cleavage, Western-blot; assay type: cell-based, human; conditions: SKOV-3, 24 h exposure to 50 μM or 100 μM
Protocol: (§3) Two×10^6 cells were seeded in 150 cm^2 tissue culture flasks. […] After an additional twenty-four hours, cells were harvested, cell number determined, and aliquots derived from equal cell numbers generated from each exposure condition. Total proteins from these whole cell lysates were separated by SDS-PAGE and transferred to nitrocellulose filters. Filters were then immunoblotted to detect intact PARP protein and cleavage fragments by using the clone C-2-10 mouse monoclonal anti-PARP antibody (Zymed Laboratories, San Francisco, Calif.). The resulting protein-antibody complexes were visualized by chemiluminescence techniques.
(§4) Western-blot analysis was used to assess of PARP cleavage. Two×10^6 cells were seeded into separate 75 cm^2 tissue culture flasks containing 20 ml of tissue culture media plus serum. […] Twenty-four hours after the addition of Taurolidine, cells were harvested cell number determined, and aliquots containing an equal cell number were generated from each exposure condition. Total proteins from whole cell lysates generated from these aliquots were separated by SDS-PAGE and electrotransferred to nitrocellulose filters. Filters were then processed to detect intact PARP protein and cleavage fragments by using the clone C-2-10 mouse monoclonal anti-PARP antibody (Zymed Laboratories, San Francisco, Calif.). […]

[10] = tested on: PA-1 cells; assay: PARP cleavage, Western-blot; assay type: cell-based, human; conditions: PA-1, 24 h exposure to 50 μM or 100 μM
Protocol: as §3, §4

[11] = tested on: NIH-3T3 cells; assay: PARP cleavage, Western-blot; assay type: cell-based, murine; conditions: NIH-3T3, 24 h exposure to 50 or 100 μM
Protocol: as §3, §4

[12] = tested on: H-157 lung tumor cells; assay: Cell growth inhibition, 3 d exposure, cell counting; assay type: cell-based; conditions: Homo sapiens, NCI-H157, 72 h
Protocol: as §1, §2

[13] = tested on: HT-29 colon tumor cells; assay: as above; assay type: cell-based; conditions: Homo sapiens, 72 h
Protocol: as §1, §2

[14] = tested on: A-549 lung tumor cells; assay: as above; assay type: cell-based; conditions: Homo sapiens, A549, 72 h
Protocol: as §1, §2

[15] = tested on: SKOV-3 human ovarian tumor cells; assay: as above; assay type: cell-based; conditions: SK-OV-3, 72 h, SKOV-3 (ovary)
Protocol: as §1, §2

[16] = tested on: MNT-1 melanoma cells; assay: as above; assay type: cell-based; conditions: Homo sapiens, 72 h
Protocol: as §1, §2

[17] = tested on: PA-1 human ovarian tumor cells; assay: as above; assay type: cell-based; conditions: PA-1 (ovary)
Protocol: as §1, §2

[18] = tested on: U-251 glioma cells; assay: as above; assay type: cell-based; conditions: Homo sapiens, 72 h, U-251 (brain)
Protocol: as §1, §2

[19] = tested on: NIH-3T3 murine fibroblasts; assay: as above; assay type: cell-based
Protocol: as §1, §2

[20] = Taurolidine-induced toxicity, 3 d i.p. bolus injection regimen; assay type: in vivo; conditions: for mortality (%): i.p., 3 consecutive days
Protocol: Control animals received 1 ml injections of 5% Kollidon 17 PF alone. Animals were examined daily and body weight recorded twice weekly. A reduction in body weight of greater than 10% was considered significant. The maximally tolerated dose (MTD) was considered to be the dose which produced ˜10% mortality.
During the injection regimen, and daily thereafter for 30 d, mice were weighed and examined. Experiments were repeated a minimum of three times and mortality and weight loss data pooled.

[21] = tested on: 3T3 cells; assay: DNA fragmentation, agarose-gel electrophoresis; assay type: cell-based; conditions: identical regimen, 50 μM
[22] = tested on: MDR-transfected glioblastoma cells; assay: Cytotoxicity in drug resistant glioblastoma cells; conditions: 50 μM
Source text: The neoplastic cell lines used in the survey were standard tumor cell lines, e.g., PA1 human ovarian cell line, SKOV3 human ovarian cell line, HT29 human colon tumor cell line, DU145 human prostate tumor cell line, U251 human glioblastoma cell line, U251-MDR human glioblastoma cell line transfected with DNA encoding MDR, T98G human glioblastoma cell line, SP-1 human leukemia cell line, and Daudi human leukemia cell line.
Glioblastoma cells were transfected with a gene encoding multiple drug resistance (MDR).

[23] = tested on: panel of human and murine tumor cell lines; assay: Cell growth inhibition, panel summary; assay type: cell-based; conditions: for IC50: 72 h; for cytotoxic concentration lower than that for antibacterial/antibiotic effect: versus concentrations used to inhibit bacterial cell growth
Protocol: (§5) Parallel studies were carried out to assess whether disruption of cell adhesion played a role in the cytotoxic activity.
as §1, §2

[24] = tested on: human ovarian tumor cells; assay: Growth of established tumor cell colonies in vitro; assay type: cell-based; conditions: 24-hour exposure to 50 μM
Protocol: as §5

O=S1(=O)CCN(CN2CCS(=O)(=O)NC2)CN1 [Taurolidine, Bis-(1,1-dioxoperhydro-1,2,4-thiadiazinyl-4)methane]
exposure time that induces apoptosis [1]: 90 min
DNA fragmentation [2]: overt DNA fragmentation
IC50 [3]: 34.2 µM
IC50 ([3]; Homo sapiens, NCI-H596, 72 h): ~35 µM
IC50 [4]: 11.5 ± 0.5 µM
IC50 ([4]; Homo sapiens, HCT-8, 72 h): ~10 µM
IC50 [5]: 9.6 ± 3 µM
IC50 ([5]; Homo sapiens, HCT-15, 72 h): ~10 µM
IC50 [6]: 9.8 ± 0.8 µM
IC50 ([6]; Homo sapiens, DU-145, 72 h): ~10 µM
reduction in tumor foci [7]: 75-80%
factors controlling the growth of blood vessels [8]: decreased
PARP cleavage [9]: resulted in PARP cleavage
PARP cleavage [10]: resulted in PARP cleavage
PARP cleavage [11]: little evidence of this proteolytic event
IC50 [12]: 32.2 ± 5.6 µM
IC50 [13]: 18.6 ± 1 µM
IC50 [14]: 26.8 ± 7.2 µM
IC50 [15]: 31.6 ± 7 µM
IC50 [16]: 22.1 ± 2.1 µM
IC50 ([17]; Homo sapiens, 72 h): ~10 µM
IC50 [17]: 11.4 ± 1.8 µM
IC50 [18]: 20.1 ± 2.7 µM
IC50 [19]: 11.9 ± 1.8 µM
IC50 ([19]; Mus musculus, NIH3T3, 72 h): ~10 µM
mortality (%) ([20]; 10 mg/mouse/inj): 6%
mortality (%) ([20]; 20 mg/mouse/inj): 13%
mortality (%) ([20]; 25 mg/mouse/inj): 47%
mortality (%) ([20]; 30 mg/mouse/inj): 100%
tolerability ([20]; daily doses below 15 mg/mouse (~650 mg/kg), 3 d i.p. regimen): well-tolerated
MTD ([20]; mouse, in vivo, ip): 20 mg/inj
maximally tolerated dose (MTD) ([20]; mouse, in vivo, ip): 20 mg/mouse
DNA fragmentation [21]: not apparent
cytotoxicity [22]: Significant cytotoxicity
IC50 ([23]; 3 d exposure, panel of human and murine tumor cell lines, read-out: IC50s over all cell lines evaluated): 10 to 50 µM
IC50 ([23]; 3-day exposure, human cancer cell lines, read-out: concentration required to inhibit tumor cell growth (IC50)): 12.5 to 50 µM
cytotoxic concentration lower than that for antibacterial/antibiotic effect [23]: approximately 100 fold
cytotoxic concentration lower than that for antibacterial/antibiotic effect ([23]; listed as taurolidine): at least 1000 fold
cytotoxic effect against growth of established tumor cells [24]: significant cytotoxic effect

— patent publication US6703413B2 (Rhode Island Hospital, priority 1999, dated 2004)
